Experimental data from article PMC3964211, “Pharmacokinetic modeling optimizes inhibition of the ‘undruggable’ EWS-FLI1 transcription factor in Ewing Sarcoma” (Oncotarget, 2013).

Columns and labels:
[1] = Pharmacokinetics in C57BL/6 mice, IV or IP 75 mg/kg; assay type: in vivo; conditions: IV 75 mg/kg
Description: (§1) The poor oral bioavailability determined from the rat study caused us to focus on IV delivery. Since mice often metabolize compounds differently from rats, we also evaluated the intraperitoneal (IP) PK profle and compared it to the IV profile. We determined pharmacokinetics in C57BL/6 mice given IV (Figure 2A) or IP (Figure 2B) administrations of 75 mg/kg YK-4-279, which was the maximal solubility of compound in 20% Cremophor EL. […] In addition, drug levels in tumor were measured using SCID/bg mice with orthotopic xenografts that were treated with daily IV injections of (S)-YK-4-279 for 6 days. […]
(§2) The plasma and tumor sample analysis was performed using calibration standards and Quality Control (QC) samples prepared in control rat or mouse plasma and tumor tissues. […] The transitions monitored were 366 amu to 135 amu for YK-4-279 and 369 amu to 138 amu for the YK-4-279-d3 internal standard. YK-4-279 concentrations were calculated using peak area response ratios and a regression equation constructed from the concentrations and peak area response ratios of the calibration standards. The lower limit of quantitation was 5.0 ng/mL in plasma and […] in tumor tissue. The concentration-time profiles were evaluated by compartmental modeling and non-compartmental analysis using WinNonlin (Pharsight Corporation, Mountain View, CA). […]

A4573 xenografts = test: IV efficacy experiment, A4573 xenografts, with plasma and tumor drug levels; assay type: in vivo, SCID/bg mice
Description: as §1
Twenty Fox Chase SCID beige mice per sex were inoculated with 2 million of A4573 cells. Tumor volume was monitored every day by caliper. […]
as §2, with “tissue.” for “tissue. The concentration-time profiles were evaluated by compartmental modeling and non-compartmental analysis using WinNonlin (Pharsight Corporation, Mountain View, CA).”

Question: For COc1ccc(C(=O)CC2(O)C(=O)Nc3c(Cl)ccc(Cl)c32)cc1 (stereo not drawn) [YK-4-279], which “Time that peak levels would exceed 3 ¼M” value [1] is on record?
Answer: ~ 1 hour

Question: And the “Effect on xenograft tumor growth” value (A4573 xenografts; A4573 xenografts in SCID/bg mice, 75 mg/kg IV QD)?
Answer: tumors did not regress nor reduce their growth rate

Question: And the “Plasma levels 2 hours following the final IV bolus dose” value (A4573 xenografts; SCID/bg mice with A4573 xenografts, repeated IV injections)?
Answer: 1.5–18 ¼M
